In data set [1] the target is T1, hERG potassium channel (Homo sapiens, UniProt Q12809). Description: hERG inhibition, automated QPatch patch clamp in CHO cells stably expressing hERG. For orientation: The hERG channel carries a current that helps repolarise heart muscle cells.
Experimental: (§1) A CHO cell line stably expressing hERG potassium channels were voltage clamped using automated QPatch electrophysiology system. Test items were dissolved in DMSO and diluted with external recording buffer. […] Each cell acted as its own control. […] The extent of inhibition of channel was expressed as a percentage of the control response (minus the test compound).
Data set [2] relates to forced swimming mice (immobility). Kind of data set: Forced swimming test in mice. In kind it is in vivo, KM mice. The note with it: for inhibition in vivo at 10 mg/kg: Mus musculus, po, mice, 10 mg/kg i.g., 100 × [(control − experiment)/control], read-out: Reduction (%) of immobility time vs control; for Antidepressant activity compared with laetispicine (in words): forced swimming test in mice, 10 mg/Kg. Here is the method: KM mice (18–22 g) of either sex were obtained from Laboratory Animal Center of the College of Medicine, Fudan University. Animals were housed in standard environmental conditions with free access to food and water. The animals were used only once throughout the study. They were allowed to acclimatize to the laboratory seven days before pharmacological tests. The experiment procedures were conducted in compliance with the National Institutes of Health Guide for Care and Use of the laboratory Animals.
Tween 80 was purchased from Sinopharm Chemical Reagent Co., Ltd (Shanghai, China), fluoxetine from Shanghai Zhongxi Pharmaceutical Co., Ltd. All other reagents were of analytical grade. All drugs were dissolved in saline with 2% Tween 80. Drugs (10 mg/kg/2 mL) were administered by intragastric (i.g.) route 60 min before the forced swimming tests. The control group received only saline with 2% Tween 80 simultaneously.
The forced swimming test adopted here is a modification of the method described by Porsoltetal. Briefly, mice were individually forced to swim for 15 min in glass cylinders (height: 20 cm, diameter: 14 cm), containing 10 cm of water at 25 °C, which is a pre-test, and then mice were removed and dried before being returned to cages. Twenty-four hours later, mice were placed in the cylinders again for a 6-min test in the same system depicted above. The duration of immobility was recorded during the last 4 min of the 6-min testing period.
Data obtained were expressed as mean ± SEM and analyzed by analysis of variance (ANOVA) followed by Bonferroni’s test. p-values less than 0.05 (p < 0.05) were used as the significant level. The percent of inhibition was determined using the following formula: Inhibition (%) = 100 × [(control − experiment) / control].

For data set [3], the target named is T1, hERG potassium channel. Kind of data set: in vitro.
Experimental: as §1

Bounds are passed on as bounds.

T1 sequence (Q12809 whole entry): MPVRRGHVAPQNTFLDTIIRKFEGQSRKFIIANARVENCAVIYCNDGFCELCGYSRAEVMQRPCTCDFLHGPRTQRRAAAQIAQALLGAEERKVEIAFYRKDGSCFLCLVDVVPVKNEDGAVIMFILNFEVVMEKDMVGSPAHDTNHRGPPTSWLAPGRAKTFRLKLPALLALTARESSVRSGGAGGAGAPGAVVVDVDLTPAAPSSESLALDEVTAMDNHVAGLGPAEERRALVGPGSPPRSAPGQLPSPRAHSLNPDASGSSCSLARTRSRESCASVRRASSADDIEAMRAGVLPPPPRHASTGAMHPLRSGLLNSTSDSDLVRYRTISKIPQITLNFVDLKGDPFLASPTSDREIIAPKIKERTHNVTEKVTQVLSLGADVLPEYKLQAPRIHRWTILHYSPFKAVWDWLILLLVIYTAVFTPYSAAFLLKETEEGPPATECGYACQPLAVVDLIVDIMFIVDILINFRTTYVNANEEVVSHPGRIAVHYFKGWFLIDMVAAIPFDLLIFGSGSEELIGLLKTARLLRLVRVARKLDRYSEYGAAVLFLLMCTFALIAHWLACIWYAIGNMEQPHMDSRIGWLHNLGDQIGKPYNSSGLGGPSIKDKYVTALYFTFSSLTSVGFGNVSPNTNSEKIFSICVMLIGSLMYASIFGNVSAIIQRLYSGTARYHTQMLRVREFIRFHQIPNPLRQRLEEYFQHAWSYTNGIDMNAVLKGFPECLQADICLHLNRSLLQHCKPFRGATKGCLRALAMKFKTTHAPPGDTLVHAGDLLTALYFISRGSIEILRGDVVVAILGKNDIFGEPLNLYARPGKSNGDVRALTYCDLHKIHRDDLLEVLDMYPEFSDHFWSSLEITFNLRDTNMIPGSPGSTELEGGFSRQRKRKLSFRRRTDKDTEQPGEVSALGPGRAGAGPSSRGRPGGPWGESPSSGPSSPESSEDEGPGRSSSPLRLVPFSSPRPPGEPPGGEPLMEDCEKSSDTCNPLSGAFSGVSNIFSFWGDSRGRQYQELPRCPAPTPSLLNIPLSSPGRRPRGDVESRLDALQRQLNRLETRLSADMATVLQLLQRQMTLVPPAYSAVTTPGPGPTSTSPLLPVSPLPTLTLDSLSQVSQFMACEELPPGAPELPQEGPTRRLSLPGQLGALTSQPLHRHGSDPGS

`COc1cc(N)c(Cl)cc1C(=O)NC1CCN(CCCOc2ccc(F)cc2)CC1OC` (stereo not shown) [Cisapride, reference compound] gave an inhibition at 1 µM on hERG potassium channel [1] (human, CHO cells stably expressing hERG) of 97.9 ± 0.5%.

Regarding `CC(C)CNC(=O)/C=C/C=C/CCC/C=C/Cc1ccccc1` [Compound 1b, N-Isobutyl-11-phenylundeca-2E,4E,9E-trienamide], the melting point lay in the range of 80 to 82 °C. The inhibition in vivo at 10 mg/kg in data set [2] was 39%.

Consider `COc1ccc(C/C=C/CCC/C=C/C=C/C(=O)NCC(C)C)cc1` [Compound 1c, N-Isobutyl-11-(4-methoxyphenyl)undeca-2E,4E,9E-trienamide], for which, in data set [2], the inhibition in vivo at 10 mg/kg was determined as 5% and the “Antidepressant activity compared with laetispicine (in words)” value was “lost their antidepressant activities entirely”.

`COc1ccc(C/C=C/CCC/C=C/C=C/C(=O)NCC(C)C)cc1OC` [Compound 1d, N-Isobutyl-11-(3,4-dimethoxyphenyl)undeca-2E,4E,9E-trienamide] registered a melting point of 61 to 63 °C. Moreover, in data set [2], the inhibition in vivo at 10 mg/kg came to 6% and the “Antidepressant activity compared with laetispicine (in words)” value is listed as “lost their antidepressant activities entirely”.

`COc1cc(C/C=C/CCC/C=C/C=C/C(=O)NCC(C)C)cc(OC)c1OC` [Compound 1e, N-Isobutyl-11-(3,4,5-trimethoxyphenyl)undeca-2E,4E,9E-trienamide] returned a melting point of 72 to 73 °C. Besides, in data set [2], the inhibition in vivo at 10 mg/kg was 27% and the “Antidepressant activity compared with laetispicine (in words)” value is “less antidepressant activities than laetispicine”.

Turning to `CC(C)CNC(=O)/C=C/C=C/CCC/C=C/Cc1ccc2c(c1)CCO2` [Compound 1f, N-Isobutyl-11-(2,3-dihydrobenzofuran-5-yl)undeca-2E,4E,9E-trienamide], in data set [2], the inhibition in vivo at 10 mg/kg came to 5% and the “Antidepressant activity compared with laetispicine (in words)” value was “lost their antidepressant activities entirely”.

Turning to `CC(C)CNC(=O)/C=C/C=C/CCC/C=C/Cc1ccc2c(c1)OCCO2` [Compound 1g, N-Isobutyl-11-(2,3-dihydrobenzo [1, 4]dioxin-6-yl)undeca-2E,4E,9E-trienamide], the melting point lay in the range of 69 to 72 °C. For the same compound, in data set [2], the inhibition in vivo at 10 mg/kg came out at 29% and the “Antidepressant activity compared with laetispicine (in words)” value is reported as “less antidepressant activities than laetispicine”.

On to `CC(C)CNC(=O)/C=C/C=C/CCC/C=C/Cc1ccc(Cl)cc1` [Compound 1h, N-Isobutyl-11-(4-chlorophenyl)undeca-2E,4E,9E-trienamide], for which, in data set [2], the inhibition in vivo at 10 mg/kg was found to be 52% and the “Antidepressant activity compared with laetispicine (in words)” value is on record as “better antidepressant activities than that of laetispicine”. Further, on hERG potassium channel [3], the inhibition at 1 µM turned out to be 8 ± 2.3%, the inhibition at 10 µM came out at 13.9 ± 2% and the inhibition at 100 µM is 24.2 ± 4.9%. Besides, the IC50 on hERG potassium channel [1] is greater than 100 µM.

Consider `CC(C)CNC(=O)/C=C/C=C/CCC/C=C/Cc1ccc(F)cc1` [Compound 1i, N-isobutyl-11-(4-fluorophenyl)undeca-2E,4E,9E-trienamide], for which the melting point was in the range of 75 to 77 °C. Besides, in data set [2], the inhibition in vivo at 10 mg/kg came to 43% and the “Antidepressant activity compared with laetispicine (in words)” value is reported as “better antidepressant activities than that of laetispicine”. Further, at hERG potassium channel [3], the inhibition at 1 µM stood at 7.1 ± 0.7%, testing at 10 µM gave an inhibition of 10.7 ± 0.1% and the inhibition at 100 µM came out at 17.7 ± 1.5%. This compound also gave an IC50 at hERG potassium channel [1] greater than 100 µM.

With `CNCCC(Oc1ccc(C(F)(F)F)cc1)c1ccccc1` (stereo not shown) [Fluoxetine, fluoxetine, reference compound], the inhibition in vivo at 10 mg/kg in data set [2] is 0%.

For the compound `CC(C)CNC(=O)/C=C/C=C/CCC/C=C/Cc1ccc2c(c1)OCO2` [Laetispicine (1a), Laetispicine], the inhibition in vivo at 10 mg/kg in data set [2] amounted to 33%.

The inhibition is the share of the control response that was lost under treatment. By melting point is commonly meant the temperature, or range, at which the solid turns liquid. By IC50 is commonly meant the midpoint of a concentration-inhibition curve. A higher IC50 goes with a need for much substance.
